These results are taken from patent US20260308128A1, “BETA-ELEMENE DERIVATIVE CONTAINING PHOTOAFFINITY GROUP DIAZIRINE, AND PREPARATION METHOD AND USE THEREOF AS PHOTOAFFINITY MOLECULAR PROBE” (HANGZHOU NORMAL UNIVERSITY, priority 2022, published 2026).

By IC50 is commonly meant the point on the concentration scale where inhibition reaches its midpoint.

In test [1] the test system is Huh1 human liver cancer cells. Description: Tumor cell proliferation inhibition (CCK-8), Huh1. Type of test: cell-based. The following applies: for IC50: Homo sapiens, read-out: IC50 Huh1; for IC50 times lower than that of β-elemene: human Huh1 liver cancer cells, versus β-elemene. The method, then: (§1) Human liver cancer cell Huh1, human lung cancer cell A549, and human brain glioma cell U87-MG.
(§2) • (1) A cell laboratory was routinely disinfected and a clean bench was subjected to ultraviolet radiation for more than 30 min. • (2) A culture solution (DMEM) and 0.25% trypsin were preheated in a constant-temperature water bath at 37° C. for 20 min, and dimethyl sulfoxide (DMSO) was refrigerated in a refrigerator at 4° C. for 30 min. • (3) A cryopreserved tube was taken out of a liquid nitrogen storage tank, immediately placed in a 37° C. water bath and shaken rapidly until s cryopreserved liquid was completely thawed. • (4) A cell suspension was transferred into a centrifuge tube, the culture solution was slowly added thereto, and the centrifuge tube was transferred into a centrifuge for centrifugation (120×g, 5 min). • (5) A cell concentration was adjusted with the culture solution, and resulting adjusted cells were shaken well, and placed in a 37° C., 5% CO2 incubator for culture. • (6) After the cells had attached for 24 h, the culture solution thereof was changed. When a cell density reached 80% to 90%, the cells were digested with trypsin and then subcultured.
(§3) • (1) A A549 cell suspension was adjusted to 5×10^4 cells/mL using a DMEM culture medium. […] The cells were cultured in the incubator for 1 h and an absorbance at 450 nm was measured using a THERMO FISHER Multiskan FC microplate reader. • (5) IBM SPSS Statistics 22.0 software was used to plot an S-shaped dose-survival curve using a non-linear regression model, and a survival rate and an inhibition rate were calculated using the following formulas:
(§4) [formula] [formula] • As: absorbance of the experimental well (culture medium containing cells, CCK-8, and the drug to be tested) • Ac: absorbance of the control well (culture medium containing cells, CCK-8, and no drug to be tested) • Ab: absorbance of the blank wells (culture medium without cells and drug to be tested, CCK-8)
(§5) According to the above experimental method, CCK-8 was used to determine the proliferation inhibitory effects of the isolated and purified β-elemene monomer, elemene photoaffinity probe and control compounds on three human cancer cells, namely A549 human non-small cell lung cancer cells, U87-MG human malignant glioma cells, and Huh1 human liver cancer cells.

Test [2] concerns U87-MG human malignant glioma cells. Briefly: Tumor cell proliferation inhibition (CCK-8), U87-MG. Particulars: for IC50: Homo sapiens, U-87 MG, 48 h, read-out: IC50 U87; for IC50 times lower than that of β-elemene: human U87-MG malignant glioma cells, versus β-elemene. Type of test: cell-based. The method, then: as §1, §2, §3, §4, §5
The subject of test [3] is A549 human non-small cell lung cancer cells. Description: Tumor cell proliferation inhibition (CCK-8), A549. The following applies: for IC50: Homo sapiens, read-out: IC50 A549; for IC50 times lower than that of β-elemene: human A549 lung cancer cells, versus β-elemene. Type of test: cell-based. The method, then: as §1, §2, §3, §4, §5
The subject of another test is Huh1 liver cancer cells. Briefly: Pre-targeted imaging using molecular probe in living cells (365 nm photo-crosslinking, N3-TAMRA click, confocal microscopy). Type of test: cell-based, human. The protocol:
In order to determine whether the molecular probe could enter the cell and explore the binding site of the targeted biomacromolecule thereof, the experiment was conducted as follows.
DMEM culture medium, PBS, 4% paraformaldehyde tissue cell fixative, Triton X-100, 5% BSA blocking solution, DAPI staining solution, Cu2SO4, sodium ascorbate, THPTA, N3-TAMRA
• (1) 10^5 Huh1 liver cancer cells were inoculated into glass-bottomed culture dishes and cultured in a 37° C., 5% CO2 incubator until the cells adhered to wall. • (2) DMEM culture medias containing different drug concentrations were added to the culture dishes and incubated overnight in the 37° C., 5% CO2 incubator. • (3) After removing the drug-containing culture mediums, resulting cells were washed with pre-cooled PBS ([…]) for 3 min, placed on ice, and irradiated at 365 nm for 15 min. • (4) Resulting irradiated cells were treated with 1 mL of 4% paraformaldehyde tissue cell fixative for 15 min, the paraformaldehyde tissue cell fixative was removed, and resulting cells were washed with pre-cooled PBS. • (5) Resulting washed cells were permeabilized with 500 μL of 0.1% Triton X-100 in PBS for 10 min, then blocked with 1 mL of 5% BSA blocking solution for 30 min, the blocking solution was removed, and resulting cells were washed with pre-cooled PBS (3×1 mL). • (6) 200 μL of freshly prepared Click reaction solution (20 μM N3-TAMRA, 400 μM Cu2SO4, 400 μM THPTA, 2 mM sodium ascorbate) was added to washed cells obtained in step • (5), incubated under shaking at room temperature for 2 h, the reaction solution was removed, and resulting cells were washed with pre-cooled PBS (3×1 mL) for 3 min. • (7) 200 μL of DAPI staining solution was added to washed cells obtained in step (6) and stained for 6 min, the staining solution was removed, and resulting cells were washed with pre-cooled PBS (3×1 mL) for 3 min, and then imaged with a laser scanning confocal microscope.
According to the above experimental method, the cell images of the β-elemene photoaffinity probe (Compound 2) and a control Compound 6 and β-elemene were measured.

Like-named read-outs stand apart in the source and are kept apart here.

Consider `C#CCCC(=O)NCCOCCOCCC(=O)N[C@H](CCC1(C)N=N1)C(=O)N1CCN(CC(=C)[C@@H]2CC[C@@](C)(C=C)[C@H](C(=C)C)C2)CC1` [Compound 1], for which the IC50 in test [1] (HuH-1, Huh1 cells, 48 h, CCK-8) is 18.7 ± 1.54 µM; in test [2] (U87-MG cells, CCK-8) it was 38.7 ± 1.91 µM; in test [3] (A549 cells, 48 h, CCK-8), 29.3 ± 1.63 µM. The “IC50 times lower than that of β-elemene” value in test [1] was “more than 10 times”; in test [3] it was “more than 5 times”.

In the case of `C#CCCC(=O)NCCOCCOCCC(=O)N[C@H](CCC1(C)N=N1)C(=O)NCCN1CCN(CC(=C)[C@@H]2CC[C@@](C)(C=C)[C@H](C(=C)C)C2)CC1` [Compound 2], the IC50 in test [1] (HuH-1, Huh1 cells, 48 h, CCK-8) is 20.12 ± 0.16 µM; in test [2] (U87-MG cells, CCK-8), 25.5 ± 4.79 µM; in test [3] (A549 cells, 48 h, CCK-8), 37.8 ± 3.36 µM. For the same compound, the “IC50 times lower than that of β-elemene” value is listed as “more than 10 times” in test [1] and “more than 5 times” in test [3]. The “intracellular Rhodamine Red fluorescence, with UV irradiation” value in the test with Huh1 liver cancer cells (20 μM, with UV irradiation (365 nm, 15 min)) is “strong intracellular Rhodamine Red fluorescence”. For the same compound, in the test on Huh1 liver cancer cells (20 μM, without UV irradiation), the “intracellular Rhodamine Red fluorescence, without UV irradiation” value is on record as “no intracellular Rhodamine Red fluorescence”. In the test on Huh1 liver cancer cells (conclusion from competition imaging), the “binding of the probe to the target” value is “non-covalent”.

In the case of `C#CCCC(=O)NCCOCCOCCC(=O)N[C@H](CCC1(C)N=N1)C(=O)NCCOCCOCCN1CCN(CC(=C)[C@@H]2CC[C@@](C)(C=C)[C@H](C(=C)C)C2)CC1` [Compound 3], the IC50 in test [1] (HuH-1, Huh1 cells, 48 h, CCK-8) turned out to be 22.8 ± 3.07 µM; in test [2] (U87-MG cells, CCK-8), 19.3 ± 3.3 µM; in test [3] (A549 cells, 48 h, CCK-8), 44.6 ± 7.68 µM. For the same compound, the “IC50 times lower than that of β-elemene” value in test [1] and in test [2] was “more than 10 times” each time.

On to `C#CCCC(=O)NCCOCCOCCC(=O)N[C@H](CCC1(C)N=N1)C(=O)N1CC2CN(CC(=C)[C@@H]3CC[C@@](C)(C=C)[C@H](C(=C)C)C3)CC2C1` (stereo partly drawn) [Compound 4], for which the IC50 was 54.5 ± 3.26 µM in test [1] (HuH-1, Huh1 cells, 48 h, CCK-8); 47.2 ± 2.21 µM in test [2] (U87-MG cells, CCK-8); 48.4 ± 1.7 µM in test [3] (A549 cells, 48 h, CCK-8).

Turning to `C#CCCC(=O)NCCOCCOCCC(=O)N[C@@H](CCC1(C)N=N1)C(=O)NCCOCCOCCN1CC2CN(CC(=C)[C@@H]3CC[C@@](C)(C=C)[C@H](C(=C)C)C3)CC2C1` (stereo partly drawn) [Compound 5], the IC50 in test [1] (HuH-1, 48 h) was 17.1 ± 0.8 µM; in test [2], 14.1 ± 1.72 µM; in test [3] (A549, 48 h), 28.4 ± 3.36 µM. Further, the “IC50 times lower than that of β-elemene” value was “more than 10 times” in test [1], “more than 10 times” in test [2] and “more than 5 times” in test [3].

Consider `C=C[C@]1(C)CC[C@@H](C(=C)CN2CC3CN(C)CC3C2)C[C@H]1C(=C)C` (stereo partly drawn) [Compound 7], for which the IC50 in test [1] (HuH-1, 48 h) turned out to be 24.3 ± 4.02 µM; in test [2], 23.3 ± 0.84 µM; in test [3] (A549, 48 h), 43.4 ± 2.14 µM. For the same compound, the “IC50 times lower than that of β-elemene” value in test [1] is reported as “more than 10 times”.

As to `C=C[C@]1(C)CC[C@@H](C(=C)C)C[C@H]1C(=C)C` [β-elemene, reference compound], the IC50 in test [1] (HuH-1, Huh1 cells, 48 h, CCK-8) was found to be 306 ± 31.7 µM; in test [2] (U87-MG cells, CCK-8), 218 ± 9.58 µM; in test [3] (A549 cells, 48 h, CCK-8), 213 ± 5.29 µM. Also, the “intensity of intracellular Rhodamine Red fluorescence of Compound 2 in presence of competitor” value with Huh1 liver cancer cells (competitor β-elemene (50 μM) with Compound 2 (20 μM), UV irradiation) is “greatly weakened”. Besides, in the test with Huh1 liver cancer cells (versus Compound 2, conclusion from competition imaging), the competitive binding result was “can competitively bind to Compound 2”.
